Assay results from patent US11738014B2, “Niraparib particles and uses thereof” (CRITITECH, INC., priority 2021, dated 2023).
In brackets after ≈: the same amount, converted by molar mass.

Columns and labels:
[1] = Particle Size Distribution (PSD) by Laser Diffraction (Malvern Mastersizer 3000); type: physicochemical; conditions: dispersed in ethyl acetate
Procedure: Particle Size Distribution (PSD) by Laser Diffraction
Particle size analyses were conducted on a Malvern Mastersizer™ 3000 using the Hydro MV™ dispersion unit. A non-validated general PSD method/dispersant method was used to analyze the niraparib samples. The sample preparation procedure performed was as follows: Weigh 10 to 20 mg of niraparib into a 30-mL vial, add 20 mL of ethyl acetate. Disperse the sample by vortexing then sonicating the suspension in an ultrasonic bath for 1 minute. Then transfer the sample suspension to the Malvern Hydro MV™ dispersion unit to obtain obscuration between 5 and 15%.
PSD results from a Dv10 of 0.601 μ to a Dv90 of 12.9μ were obtained. […] Particle size distributions can be viewed in Table 1.

[2] = Specific Surface Area (SSA) determination by BET Sorptometry; type: physicochemical
Procedure: As used herein, the “specific surface area” is the total surface area of the niraparib particle per unit of niraparib mass as measured by the Brunauer-Emmett-Teller (“BET”) isotherm (i.e.: the BET SSA). As will be understood by those of skill in the art, the SSA is determined on a per gram basis and takes into account both agglomerated and non-agglomerated niraparib particles in the composition. The BET specific surface area test procedure is a compendial method included in both the United States Pharmacopeia and the European Pharmacopeia. The niraparib particles have a specific surface area (SSA) of at least 5 m^2/g. In various further embodiments, the niraparib particles have a SSA of at least 6 m^2/g, 7 m^2/g, 8 m^2/g, 9 m^2/g 10 m^2/g, 11 m^2/g, 12 m^2/g, 13 m^2/g, 14 m^2/g, 15 m^2/g, 16 m^2/g, 17 m^2/g, 18 m^2/g, 19 m^2/g, 20 m^2/g, 21 m^2/g, 22 m^2/g, 23 m^2/g, or 24 m^2/g.
Specific Surface Area (SSA) determination by BET Sorptometry
Surface area analyses were conducted on a Quantachrome NOVAtouch™ LX2 BET Sorptometer. Surface area results can be found in Table 1.

[3] = Bulk density analysis by modified USP <616> Bulk Density of Powders Method I (bulk and tapped density); type: physicochemical
Description: As used herein, the bulk density (not tapped) of a particle is the ratio of the mass to the volume (including the interparticulate void volume) of an untapped powder sample.
As used herein, the tapped density of a particle is obtained by mechanically tapping a graduated cylinder containing the sample until little further volume change is observed.
Bulk density analysis by modified USP <616> Bulk Density of Powders Method I

[4] = physchem; conditions: for solubility at 24 h: 20 °C, aqueous with cosolvent or surfactant or cyclodextrin, thermodynamic from solid
Procedure: The solubility was determined by using a shake-flask method. The drug was added in excess to each solution prepared in duplicate. The vials were placed on a mechanical shaker for 24 hours at 20-25° C. After shaking, solution was removed and filtered through a 0.45 μm PTFE syringe filter and analyzed by UV/Visible spectrophotometry.

`NC(=O)c1cccc2cn(-c3ccc([C@@H]4CCCNC4)cc3)nc12` [Niraparib, (S)-2-(4-(piperidin-3-yl)phenyl)-2H-indazole-7-carboxamide] showed a Dv-10 [1] of 33.2 μ, a Dv-50 [1] of 103 μ and a Dv-90 [1] of 267 μ. The “Surface Area” value ([2]; BET sorptometer) was 0.70 m^2/gm, the “specific surface area measurement” value ([2]; material used in dissolution testing) was 0.70 m^2/g and the “Bulk Density” value ([3]; not tapped) was 0.617 gm/cm^3. For the same compound, the “Tapped Density” value ([3]; tapped) was 0.741 gm/cm^3, the solubility at 24 h ([4]; 10% ethanol in water) was 56.2 µg/mL (≈ 175 µM) and the solubility at 24 h ([4]; 10% methanol in water) was 76.4 µg/mL (≈ 238 µM). The solubility at 24 h ([4]; 25% ethanol in water) was 332 µg/mL (≈ 1040 µM), the solubility at 24 h ([4]; 25% methanol in water) was 204 µg/mL (≈ 637 µM) and the “solubility versus organic solvent concentration” value ([4]; methanol or ethanol, 10% and 25%) was “concentration dependent solubility”.
